Assay results as given in patent publication US8197860B2, “Method for enhancing nutrient absorption with astragalosides” (Nuliv Holding Inc., priority 2005, dated 2012).

What was measured:
Type in all cases: cell-based, human
[1] = tested on: Caco-2 cell monolayer; test: Arginine absorption assay (transport across Caco-2 cell monolayer); design: key to * (regulatory effect on arginine transport): ↑: the arrows that point up represent the enhancing effect on the arginine transport; details: for Regulatory effects on the arginine transport across the Caco2 cell monolayer: Table 3 summary; for Transport rate (arginine): 10 mM L-arginine apical
Protocol: (§1) To evaluate the effect of the isolated astragaloside compound on the uptake of nutrient substances across the intestinal lumen, Caco-2 cells were grown on permeable filter as an experimental model. Caco2 cells originate from human colonic adenocarcinoma and spontaneously differentiate into an enterocyte-like phenotype after two weeks. The Caco-2 cell line, derived from a human colorectal carcinoma, has been used as an in vitro model system for studying drug absorption in gastrointestinal tract. These cells form monolayers with well-developed tight-junctions, and have been evaluated in details as an in vitro model to study both transcellular transport of nutrients and drugs in intestinal lumen.
(§2) Caco-2 cells were obtained from the ATCC (American Type Culture Collection). The cells were maintained in Dulbecco's modified Eagle medium (DMEM) containing 4.5 g/L glucose and 25 mM Hepes, supplemented with 10% fetal calf serum, 100 U/mL penicillin G and […]. The medium was changed every second day. The cells were routinely checked for Mycoplasma in monthly intervals. Caco-2 cells were cultured on semi-permeable membranes to differentiate into a highly functionalized epithelial barrier with remarkable morphological and biochemical similarity to the small intestinal columnar epithelium. The Caco-2 cell monolayers could therefore be used to study the membrane transport properties of many compounds. To trypsinize the cells, the culture dish was washed once with phosphate-buffered saline (PBS) followed by adding trypsine-EDTA for 10 minutes. The trypsinized cells were separated and filtered into single cells using a 35-μm strainer cap (Falcon 2235) before being seeded for further experiments.
(§3) In measuring transport of arginine across the Caco-2 cell monolayer, both sides of the transwells were washed with arginine incubation buffer consisting of: 137 mM NaCl, 10 mM Hepes, 0.3 mM NaH2PO4, 0.3 mM K2HPO4, 5.4 mM KCl, 2.8 mM CaCl2, 1 mM MgSO4, 10 mM glucose, adjusted to pH 7.4. Then, the cell layer was preincubated in the incubation buffer at 37° C. for 1 h. The volume of incubation buffer was 0.2 mL and 0.9 mL in the apical and basolateral chambers, respectively. The cells were replaced with fresh incubation medium in both chambers prior to the transport experiment. The transport experiment was initiated by replacing the incubation solution on the apical side with solution containing 10 mM of L-arginine in which 0.125 μCi/mL of L-[^3H]-arginine was included. At designated time intervals, 10 μL-solution samples were removed from the basolateral side and radioactivity of each sample was counted using a microplate liquid scintillation counter (TopCount, Packard NXT). During the experiment, when a 10 μL-solution sample was removed from the basolateral side every time, 10 μL buffer was supplemented to keep the volume constant. The uptake of [^3H]-mannitol was used to correct for nonspecific transport of molecules across the monolayer membrane. Results were expressed as the nanomoles of arginine transport across the Caco-2 cell monolayers with respect to time in minutes (nmol/min).

[2] = tested on: Caco-2 cell monolayer; test: Tryptophan absorption assay (transport across Caco-2 cell monolayer); design: key to * (regulatory effect on tryptophan transport): ↑: the arrows that point up represent the enhancing effect on the tryptophan transport; details: for Regulatory effects on the tryptophan transport across the Caco2 cell monolayer: Table 4 summary; for Tryptophan transport rate: concentration from 0.01 μM to 1 mM
Protocol: as §1, §2, §3
The experimental procedures similar to those in Example 2 were used for measuring the uptake of tryptophan molecules across the Caco-2 membrane, except using a tryptophan incubation buffer consisting of 137 mM choline chloride, 10 mM Hepes, 0.6 mM KH2PO4, 5.4 mM KCl, 2.8 mM CaCl2, 1 mM MgSO4, and 10 mM glucose, and having its pH adjusted to 7.4. Results were expressed as the nanomoles of tryptophan transport across the Caco-2 cell monolayers with respect to time in minutes (nmol/min).

[3] = tested on: Caco2 cells; test: Folate uptake assay; design: key to * (regulatory effect on folate uptake): ↑: the arrows that point up represent the enhancing effect on folate uptake; details: compound 0.1 μM; for Uptake rate (folate): 2 days, 5 μM folate, pH 6.0
Protocol: as §1, §2
Caco-2 cells (5×10^4) were seeded in a 48-well plate and maintained in culture medium (DMEM with 10% FBS, 1% nonessential amino acids, L-glutamine, penicillin G (100 U/mL), streptomycin (10 μg/mL), and amphotericin B (2.5 μg/mL) in a 37° C. incubator for 10 days for the cells to differentiate. The culture medium was changed once every two days. The cells were then washed with PBS before replenishing with the culture medium containing 5% FBS and various astragalosides at the indicated concentrations (0.01, 0.1 and 1 μM) for 48 hours. The Caco2 cells were washed out of remaining glucose with PBS and replaced in the glucose buffer (80 mM NaCl, 100 mM mannitol, 20 mM Tris-HCl, pH 7.4, 3 mM K2HPO4, 1 mM CaCl2, 1 mg/mL BSA) for 1 hour. Glucose uptake was initiated by replacing the glucose buffer with 0.2 ml of glucose buffer containing 2 μCi/mL of ^14C-glucose and unlabeled cold glucose to give a final glucose concentration of 25 mM. Glucose uptake was stopped by removing the glucose buffer and washing with PBS at designated time intervals. The cells were lysed in 0.2 mL of 0.2 N NaOH, and 20 μL of the cell lysate were transferred to the filter-bottomed UniFilter plates (Perkin-Elmer, Wellesley, Mass., USA) and dried in a vacuum oven at 37° C. The bottom of the UniFilter plate was sealed and 25 μL of the counting solution were added into each well. Adhesive plate sealers were used in place of the lids and radioactivity of each sample was counted using the microplate liquid scintillation counter (TopCount, Packard NXT, Packard BioScience Company, Meriden, Conn., USA). The amount of glucose accumulated in the cells was calculated and normalized to protein concentration, and uptake rate was expressed as nanomoles of glucose per minutes per milligram of cell protein (nmol/min/mg). Protein concentration was determined by a standard Bicinchoninic acid (BCA) protein assay. Nonspecific glucose uptake was measured by adding 2 μCi of L-[^14C]-glucose and subtracting from each determination to obtain specific glucose uptake.
The Caco2 cells were subjected to folate uptake test in a manner similar to that described in the glucose uptake assay in Example 1 above. […]

[4] = concentration from 0.01 μM to 1 μM

| SMILES | Regulatory effects on the arginine transport across the Caco2 cell monolayer [1] | * (regulatory effect on arginine transport) ([1]; compound 0.01 μM) | Percentage (arginine transport, control = 100) ([1]; compound 0.01 μM) [%] | Transport rate (arginine) ([1]; compound 0.01 μM) [nmol/min] | * (regulatory effect on arginine transport) ([1]; compound 0.1 μM) | Percentage (arginine transport, control = 100) ([1]; compound 0.1 μM) [%] | Transport rate (arginine) ([1]; compound 0.1 μM) [nmol/min] | Regulatory effects on the tryptophan transport across the Caco2 cell monolayer [2] | * (regulatory effect on tryptophan transport) ([2]; compound 0.01 μM) | Percentage (tryptophan transport, control = 100) ([2]; compound 0.01 μM) [%] | Transport rate (tryptophan) ([2]; compound 0.01 μM) [nmol/min] | * (regulatory effect on tryptophan transport) ([2]; compound 0.1 μM) | Percentage (tryptophan transport, control = 100) ([2]; compound 0.1 μM) [%] | Transport rate (tryptophan) ([2]; compound 0.1 μM) [nmol/min] | Tryptophan transport rate [2] | * (regulatory effect on folate uptake) [3] | Percentage (folate uptake vs own control) [3] [%] | Uptake rate (folate) [3] [pmol/mg/min] | * (regulatory effect on arginine transport) ([1]; compound 1 μM) | Percentage (arginine transport, control = 100) ([1]; compound 1 μM) [%] | other results |
| --- | --- | --- | --- | --- | --- | --- | --- | --- | --- | --- | --- | --- | --- | --- | --- | --- | --- | --- | --- | --- | --- |
| CC(=O)O[C@H]1[C@H](O[C@H]2CC[C@]34C[C@]35CC[C@]3(C)[C@@H]([C@@]6(C)CC[C@@H](C(C)(C)O)O6)[C@@H](O)C[C@@]3(C)[C@@H]5C[C@H](O[C@@H]3O[C@H](CO)[C@@H](O)[C@H](O)[C@H]3O)[C@H]4C2(C)C)OC[C@@H](O)[C@@H]1O [AS2, astragaloside II] | had regulatory effects on the arginine transport | ↑ | 151.94 | 16.2358 ± 1.6190 | ↑ | 161.69 | 17.2771 ± 1.6170 | had regulatory effects on the tryptophan transport | ↑ | 115.07 | 10.290 ± 0.4115 | ↑ | 130.28 | 11.650 ± 0.5789 | increased | ↑ | 129.05 | 69.970 ± 3.7720 | – | – | * (regulatory effect on arginine transport) ([1]; compound 0.001 μM): ↑; Percentage (arginine transport, control = 100) ([1]; compound 0.001 μM): 136.97%; Transport rate (arginine) ([1]; compound 0.001 μM): 14.6355 ± 1.2910 nmol/min; Arginine transport rate ([1]; concentration from 0.001 μM to 0.1 μM): increased |
| CC(C)(O)[C@@H]1CC[C@](C)([C@H]2[C@@H](O)C[C@@]3(C)[C@@H]4C[C@H](O)[C@H]5C(C)(C)[C@@H](O[C@@H]6OC[C@@H](O)[C@H](O)[C@H]6O[C@@H]6O[C@H](CO)[C@@H](O)[C@H](O)[C@H]6O)CC[C@@]56C[C@@]46CC[C@]23C)O1 [AS3, astragaloside III] | had regulatory effects on the arginine transport | ↑ | 121.74 | 13.0084 ± 1.0510 | ↑ | 124.33 | 13.2858 ± 1.4110 | had regulatory effects on the tryptophan transport | ↑ | 159.81 | 14.290 ± 1.3910 | ↑ | 151.98 | 13.590 ± 1.0080 | increased | ↑ | 145.41 | 80.380 ± 6.2170 | ↑ | 148.18 | Transport rate (arginine) ([1]; compound 1 μM): 15.8341 ± 1.0000 nmol/min; Arginine transport rate [1, 4]: increased; * (regulatory effect on tryptophan transport) ([2]; compound 1 μM): ↑; Percentage (tryptophan transport, control = 100) ([2]; compound 1 μM): 270.63%; Transport rate (tryptophan) ([2]; compound 1 μM): 24.200 ± 1.0260 nmol/min |
| CC(=O)O[C@H]1[C@H](O[C@H]2CC[C@]34C[C@]35CC[C@]3(C)[C@@H]([C@@]6(C)CC[C@@H](C(C)(C)O)O6)[C@@H](O)C[C@@]3(C)[C@@H]5C[C@H](O[C@@H]3O[C@H](CO)[C@@H](O)[C@H](O)[C@H]3O)[C@H]4C2(C)C)OC[C@@H](OC(C)=O)[C@@H]1O [IsoAS1, isoastragaloside I] | had regulatory effects on the arginine transport | ↑ | 135.49 | 14.4776 ± 0.5519 | ↑ | 199.44 | 21.3107 ± 1.5130 | had regulatory effects on the tryptophan transport | ↑ | 115.97 | 10.370 ± 0.8808 | ↑ | 149.52 | 13.370 ± 0.3301 | increased | ↑ | 144.83 | 73.460 ± 3.6060 | ↑ | 135.41 | Transport rate (arginine) ([1]; compound 1 μM): 14.4734 ± 1.1350 nmol/min; Arginine transport rate [1, 4]: increased; * (regulatory effect on tryptophan transport) ([2]; compound 1 μM): ↑; Percentage (tryptophan transport, control = 100) ([2]; compound 1 μM): 118.54%; Transport rate (tryptophan) ([2]; compound 1 μM): 10.600 ± 0.8058 nmol/min |
